The values that follow are results of earlier work, collected in paper PMC5483895 (Journal of Medicinal Chemistry, 2017).

Like-named read-outs stand apart in the source and are kept apart here.

Data set [1] has as its system CCR5. The settings on record: mutation of I198 5.42 in CCR5, range over all ligands named.
Data set [2] relates to CXCR3. The settings on record: CXCR3 mutant Y271 6.51 A.
The test system of data set [3] is CXCR3. Conditions: CXCR3 mutant W268 6.48 A.
Data set [4] has as its system CCR5.
Data set [5] deals with CXCR4. The settings on record: CXCR4 mutant I259 6.55 A.
The test system of data set [6] is CXCR4. The settings on record: CXCR4 virtual screening hits.
Data set [7] has as its system CXCR4. Conditions: mutation of H203 5.42 in CXCR4, range over the ligands named.
Data set [8] deals with CX3CR1. The settings on record: mutations of Lys14, Lys18, Phe49 of the chemokine.

For Maraviroc [compound 16], the “fold decrease in affinity and/or potency” value in data set [1] is given as 3–125 fold. For the molecule CXCL11: chemokine, CXCR3 ligand, the “fold decrease of binding” value in data set [2] is “more than 10 fold”. Moreover, the “fold decrease of potency” value in data set [3] is “more than 10 fold”. As to CCL3: CC chemokine, the “fold effect on binding” value is 10 fold in data set [4] (CCR5 mutant W248 6.48 A) and 7 fold in data set [4] (CCR5 mutant Y251 6.51 A/I). Regarding “CXCL12: endogenous chemokine ligand of CXCR4”, in data set [5], the “fold effect on potency” value is recorded as 8 fold. For `Cc1nc(CN(C)CC2CCCN(CCc3ccccc3C)C2)c[nH]1` (stereo not shown) [compound 78], the affinity in data set [6] was 0.31 µM.

Take `Cc1ccc(-c2nc3n(c2/C=N/N=C(N)N)CCS3)cc1` [compound 76]: in data set [6], the affinity is 225 µM. Take `c1ccc(CNCc2ccc(CN3CCCNCCNCCCNCC3)cc2)nc1` [compound 2]: the “fold effect on affinity/potency” value in data set [7] is on record as 3–5 fold. `Cc1ccc(-c2ccc3c(c2)C=C(C(=O)Nc2ccc(C[N+](C)(C)C4CCOCC4)cc2)CCC3)cc1.[Cl-]` [compound 19]: the “fold decrease in affinity and/or potency” value in data set [1] is on record as 3–125 fold. As for `CC#CCN1C(=O)[C@H]([C@@H](O)C2CCCCC2)NC(=O)C12CCN(Cc1c(C)nn(-c3ccccc3)c1C)CC2` [compound 23], the “fold decrease in affinity and/or potency” value in data set [1] is listed as 3–125 fold. For the molecule `COC[C@@H](c1ccc(C(F)(F)F)cc1)N1CCN(C2(C)CCN(C(=O)c3c(C)ncnc3C)CC2)C[C@@H]1C` [compound 17, Vicriviroc], in data set [1], the “fold decrease in affinity and/or potency” value is 3–125 fold.

B1: CX3CL1: human CX3C chemokine (protein, UniProt P78423 25-397, looked up)
Fractalkine: QHHGVTKCNITCSKMTSKIPVALLIHYQQNQASCGKRAIILETRQHRLFCADPKEQWVKDAMQHLDRQAAALTRNGGTFEKQIGEVKPRTTPAAGGMDESVVLEPEATGESSSLEPTPSSQEAQRALGTSPELPTGVTGSSGTRLPPTPKAQDGGPVGTELFRVPPVSTAATWQSSAPHQPGPSLWAEAKTSEAPSTQDPSTQASTASSPAPEENAPSEGQRVWGQGQSPRPENSLEREEMGPVPAHTDAFQDWGPGSMAHVSVVPVSSEGTPSREPVASGSWTPKAEEPIHATMDPQRLGVLITPVPDAQAATRRQAVGLLAFLGLLFCLGVAMFTYQSLQGCPRKMAGEMAEGLRYIPRSCGSNSYVLVPV
As for B1, the “fold reduction of affinity for the receptor” value in data set [8] was “more than 10 fold”.
